Where “and” joins values, the source holds several entries; their conditions need not be identical. Equal values may be shown once. Where a name gives a salt, the structure may show the parent alone.
Tests used:
Type in all cases: in vivo, Human
[1] = tested on: children and young adults with Dravet syndrome; test: Study 1: Behavior Rating Inventory of Executive Function (BRIEF); settings: for BRIEF Global Executive Composite, change from baseline, mean: raw scores, negative = improvement
Excerpt: In the BRIEF test, the parent/caregiver and/or the patient (e.g., child or adolescent self-reporting) responds to a series of statements or questions in the form of questionnaires, where an answer of “N”=Never a problem, “S”=Sometimes a problem, and “O”=Often a problem are used to indicate that the behavior being described or assessed has occurred in the past 6 months.
Each questionnaire of the BRIEF parent- and teacher-rating form contains 86 items in eight non-overlapping clinical scales and two validity scales. Based on theoretical and empirical analyses (reviewed in chapter 5 of Gioia, Ibid.), the clinical scales combine to form two indexes: a) Behavioral Regulation (three scales) and b) Metacognition (five scales), as well as a Global Executive Composite (GEC), which is a summary score that takes into account all eight clinical scales of the BRIEF and represents the child's overall executive function. There are also two validity scales to measure Negativity and Inconsistency of responses. Scores on the Negativity scale measures the extent to which the respondent answered selected items in an unusually negative manner whereas scores on the Inconsistency scale indicate the extent to which the respondent answered similar items in an inconsistent manner.
The BRIEF (BRIEF-A or BRIEF-P) were administered at the time of patient randomization (on visit 3, which was one day before (study day “−1”) treatment began (study day 1)); the BRIEF was administered again during visit 8 (study day 43), and at the end of the study (visit 12, study day 99) to assess cognitive function.
(§1) The incidence of treatment-emergent adverse events (TEAEs) was monitored continuously during the study. TEAEs were graded by the investigator as mild, moderate, or severe, and related or not related to study medication. Vital signs, height, weight, and clinical laboratory evaluations were performed at each study visit. The Behavior Rating Inventory of Executive Function (BRIEF) was administered at baseline and periodically during the treatment period to assess for any effects of treatment on cognitive function. Doppler echocardiography (ECHOs) and 12-lead electrocardiography (ECGs) were performed during the screening/baseline period, after 6 weeks of treatment, and after 14 weeks of treatment at the end of the maintenance period. The ECGs and ECHOs were evaluated by two independent cardiologists who were blind to treatment randomization. In the event of disagreement, a third cardiologist arbitrated the decision.

[2] = tested on: children and young adults with Dravet syndrome; test: Study 1: safety (TEAEs, body weight, echocardiography)
Procedure: as §1
All subjects received ZX008 or matching placebo for up to approximately 16 weeks (Titration Period=2 weeks; Maintenance Period=12 weeks; Taper/Transition Period=2 weeks) in Study 1. After completion of the Maintenance Period, eligible subjects could enroll in an open-label extension (OLE) study, after completion of the transition. […] Follow-up cardiovascular safety assessments, including ECG and ECHO, were performed 3 to 6 months following the last dose of study medication.
In the ZX008 0.2 mg/kg/day group, 5 (12.8%) subjects had weight losses ranging from 8.4% to 21.9% of body weight; the one subject with a 21.9% loss was under the guidance of a nutritionist to manage their weight during the trial, and another subject with a 15.3% loss had been diagnosed with diabetes mellitus shortly before enrolling in the study and was also being managed to lose weight. One subject in the 0.2 mg/kg/day group gained 10.3% body weight during the study. In the ZX008 0.8 mg/kg/day group, 8 (20.0%) subjects lost weight, ranging from 7.2% to 11.4% of baseline body weight. One subject in the ZX008 0.8 mg/kg/day group discontinued citing decreased appetite and weight loss, among other events. The weight loss, however, amounted to less than 1 kg. There were no deaths in the study.

[3] = tested on: children and young adults with Dravet syndrome; test: Study 1: quality of life (PedsQL, QOLCE); settings: increase indicates improvement
Procedure: (§2) In Study 1, subjects were assessed using Clinical Global Impression (CGI), allowing the parent/caregiver and principal investigator to assess improvement, as well as the Quality of Life in Childhood Epilepsy (QOLCE) Scale and the Pediatric Quality of Life Inventory (PedsQL) to measure changes in the quality of life of the subject. Comparisons between treatment groups were made using Wilcoxon rank sum tests.
In 2003, Varni and colleagues published a study intended to determine the feasibility, reliability, and validity of the 23-item PEDSQL 4.0 (Pediatric Quality of Life Inventory) Generic Core Scales as a measure of pediatric population health for children and adolescents. The instrument was given to over 10,000 families with children age 2-16 in the state of California. From Varni, et al., parent reported changes in each of the scales and summary scores that could be considered clinically meaningful include a change of >1 SEM or Standard Error of Measurement as a cut point.

[4] = tested on: children and young adults with Dravet syndrome; test: Study 1: Clinical Global Impression of Improvement (CGI-I)
Procedure: CGI-S and CGI-I ratings were made by clinical investigators and parent/caregivers in a series of phase III trials of fenfluramine. CGI changes were measured in two randomized, controlled trials with results reported herein. Study 1 was conducted as described in Example 1 and CGI ratings were made according to a set schedule of visits made to the clinic. Tables of results and bar graphs of the statistical analyses of CGI ratings for Study 1 at visit twelve (day 113) are provided in FIGS. 1-4. […] Similar results were obtained with investigator CGI-I rating.
as §2
The CGI scale measures the change in the subject's clinical status from a specific point in time, i.e., the Baseline Period (and also referred to as the CGI-S, an initial ranking of severity). The CGI rating scale permits a global evaluation of the subject's improvement over time.

CCNC(C)Cc1cccc(C(F)(F)F)c1 (centres unmarked) [ZX008, fenfluramine hydrochloride]
BRIEF BRI, improvement compared to baseline as compared to placebo ([1]; 0.2 mg/kg/day, P<0.05): significant improvement | BRIEF Global Executive Composite, change from baseline, mean ([1]; 0.2 mg/kg/day): −4.4 ± 22.3 | BRIEF BRI, improvement compared to baseline as compared to placebo ([1]; 0.8 mg/kg/day, P<0.05): statistically significant improvement | BRIEF GEC, improvement compared to baseline as compared to placebo ([1]; 0.8 mg/kg/day, P<0.05): statistically significant improvement | BRIEF Global Executive Composite, change from baseline, mean ([1]; 0.8 mg/kg/day): −11.0 ± 29.1 | BRIEF-P, difference from placebo ([1]; 0.2 and 0.8 mg/kg/day, hydrochloride): No changes | Deaths in the study [2]: no deaths | Tolerability [2]: generally well tolerated | At least one echocardiographic finding with trace mitral and/or trace aortic regurgitation, % of subjects ([2]; 0.2 mg/kg/day): 17.9% | At least one echocardiographic finding with trace mitral and/or trace aortic regurgitation, number of subjects ([2]; 0.2 mg/kg/day): 7 | Body weight gained during the study, one subject ([2]; 0.2 mg/kg/day): 10.3% | Serious adverse events, % of subjects ([2]; 0.2 mg/kg/day): 10.3% | Serious adverse events, number of subjects ([2]; 0.2 mg/kg/day): 4 | Status epilepticus (serious adverse event), % of subjects ([2]; 0.2 mg/kg/day): 2.6% | Status epilepticus (serious adverse event), number of subjects ([2]; 0.2 mg/kg/day): 1 | Subjects with weight loss (change from baseline ≥7%), number ([2]; 0.2 mg/kg/day): 5 | TEAEs mild to moderate in severity, % of patients among those with TEAEs ([2]; 0.2 mg/kg/day): 94.6% | TEAEs mild to moderate in severity, number of patients among those with TEAEs ([2]; 0.2 mg/kg/day): 35 | Subjects with weight loss (change from baseline ≥7%), % ([2]; 0.2 mg/kg/day, hydrochloride): 12.8% and 13% | At least one echocardiographic finding with trace mitral and/or trace aortic regurgitation, % of subjects ([2]; 0.8 mg/kg/day): 22.5% | At least one echocardiographic finding with trace mitral and/or trace aortic regurgitation, number of subjects ([2]; 0.8 mg/kg/day): 9 | Serious adverse events, % of subjects ([2]; 0.8 mg/kg/day): 12.5% | Serious adverse events, number of subjects ([2]; 0.8 mg/kg/day): 5 | Status epilepticus (serious adverse event), % of subjects ([2]; 0.8 mg/kg/day): 5% | Status epilepticus (serious adverse event), number of subjects ([2]; 0.8 mg/kg/day): 2 | Subjects with weight loss (change from baseline ≥7%), number ([2]; 0.8 mg/kg/day): 8 | TEAEs mild to moderate in severity, % of patients among those with TEAEs ([2]; 0.8 mg/kg/day): 92.1% | TEAEs mild to moderate in severity, number of patients among those with TEAEs ([2]; 0.8 mg/kg/day): 35 | Subjects with weight loss (change from baseline ≥7%), % ([2]; 0.8 mg/kg/day, hydrochloride): 20% | Most common non-cardiovascular adverse events ([2]; ZX008-treated patients): decreased appetite, diarrhea, nasopharyngitis, lethargy, somnolence, and pyrexia | TEAEs reported, % of subjects ([2]; each ZX008 dose group (0.2 and 0.8 mg/kg/day)): 95% | Cases of cardiac valvulopathy or pulmonary hypertension ([2]; ≤30 mg/day, 14-week treatment and 2-week transition, hydrochloride): no cases | Pediatric Quality of Life Inventory (Peds QL) Total Score, change from baseline, mean ± SD ([3]; 0.2 mg/kg/day): 6.8 ± 11.3 | Pediatric Quality of Life Inventory (Peds QL) Total Score, change from baseline, mean ± SD ([3]; 0.8 mg/kg/day): 5.9 ± 15.1 | CGI-I Investigator rating 'very much improved' or 'much improved', % ([4]; 0.2 mg/kg/day, n = 39): (41.0%) | CGI-I Parent/caregiver rating 'very much improved' or 'much improved', % ([4]; 0.2 mg/kg/day, n = 39): (41.0%) | CGI-I Investigator rating 'very much improved' or 'much improved', % ([4]; 0.8 mg/kg/day, n = 40): (55.0%) | CGI-I Parent/caregiver rating 'very much improved' or 'much improved', % ([4]; 0.8 mg/kg/day, n = 40): (55.0%)
